{
  "source": "patent US20180051284A1",
  "about": "“INHIBITORS OF MIR-17-92 CLUSTER FOR ANTI-TUMOR ACTIVITY IN MULTIPLE MYELOMA AND OTHER MALIGNANCIES” (priority 2014, published 2018)",
  "assay_type_in_all_cases": "cell-based, Human",
  "key": {"[1]": {"tested_on": "miR-17-92 primary transcript (pri-miRs) and mature miR-17-92 cluster members", "assay": "q-RT-PCR of miR-17-92 member family and two pri-miRs after transfection of MM cells", "conditions": "48 hours after transfection with 25 nM", "method": "(§1) 3×10^5 cells were transfected using Neon Transfection System (Invitrogen, Calif.,U.S.), (2 pulses at 1150, 30ms). The transfection efficiency evaluated by flow-cytometric analysis relative to a FAM dye—labeled anti-miR—negative control reached 85% to 90%.\n(§2) Reverse transcription (RT) of both primary and mature miRNAs was performed using TaqMan® MicroRNA Assays, following a procedure for multiplexing the RT step (Life Technologies, Publication Part Number 4465407). Briefly, 500 ng of total RNA, prepared with the TRIzol® Reagent (Invitrogen), underwent reverse transcription by the Taq-Man® MicroRNA RT Kit. In this reaction, the RT primer pool was composed by the individual RT primers for each microRNA belonging to the miR-17-92 cluster and two RT primers to allow the reverse transcription of the miR-17-92 primary miRNA. Real-time PCR was performed using TaqMan® MicroRNA Assays together with the TaqMan® Universal PCR Master Mix on an ViiA7 System (Life Technologies). Both primary and mature microRNAs expressions were relatively quantified using the 2-ΔΔCt method (Applied Biosystems User Bulletin No. 2), and expressed as the relative quantity of target miRNA normalized to the RNU44 (assay ID 001094) housekeeping gene. Comparative real-time polymerase chain reaction (RT-PCR) was performed in triplicate, including no-template controls. Relative expression was calculated using the comparative cross threshold (Ct) method.\nBy the use of a custom q-RT-PCR plate specifically designed by us to detect all six mature miR-17-92 members and the primary transcript by two different assays (pri-mir-17/18a/19a and pri-mir-19b1/20a/92a1), we quantified in a panel of 11 MM cell lines the levels of the different miRNAs and pri-miRs."}, "[2]": {"tested_on": "RPMI-8226, KMS-12-BM and NCI-H929 MM cells", "assay": "CCK-8 cell growth assay after transfection", "conditions": "transfection with 25 nM", "method": "as §1\n(§3) Cells were seeded in 100 μL (suspension cell lines) or 50 μL (adherent cell lines) of culture medium at a density ranging from 0,5 to 2,5×10^3 cells per well. Survival was evaluated by both Cell Counting Kit-8 colorimetric assay (CCK-8, Dojindo Molecular Technologies, Japan) and CellTiter-Glo Luminescent Cell Viability Assay (Promega Madison, Wis., USA). Assays were performed according to the manufacturer's instructions. The optical density (OD) was evaluated at wave length of 450 nm. Both OD and luminescence were recorded with the GloMax-multi detection system (Promega, Madison, Wis., USA)."}, "[3]": {"tested_on": "panel of MM cell lines", "assay": "CCK-8 cell growth analysis of a panel of MM cell lines after transfection", "conditions": "transfection 50-25-12,5 nM; up to 96 hours", "method": "as §1, §3"}, "[4]": {"tested_on": "miR-17-92 primary transcripts and mature miRNA family members", "assay": "q-RT-PCR after transfectant reagents-free (gymnotic) exposure", "conditions": "six days gymnotic exposure, 1 and 2,5 μM; two MM cell lines (NCI-H929); vs saline vehicle", "method": "Cells were seeded at low plating density in order to reach confluence on the final day of the experiments (day 6). Cell number at plating ranged from 0.5 to 2.5×10^3 in 96-well plates, from 2.5 to 10×10^3 in 12-well plates and from 1 to 3×10^4 in 6-well plates.\nThe LNA/DNA Gapmers were used at concentrations ranging from 0.1 to 20 μM.\nas §2, with “Comparative real-time polymerase chain reaction (RT-PCR) was performed in triplicate, including no-template controls.” left out"}, "[5]": {"tested_on": "CD138+ primary MM cells from bone marrow aspirates of myeloma patients", "assay": "Cell viability (7-AAD) of primary myeloma cells after gymnotic exposure", "conditions": "6 days gymnotic exposure, 2.5, 5 or 10 μM; cultured with HS-5 stromal cells", "method": "Following informed consent approved by our University Hospital Ethical Commitee, CD138+cells were isolated from the BM aspirates of both Monoclonal gammopathy of undetermined significance (MGUS) and myeloma patients by Ficoll-Hypaque density gradient sedimentation followed by antibody-mediated positive selection using anti-CD138 magnetic activated cell separation microbeads (Miltenyi Biotech, Gladbach, Germany). Purity of immunoselected cells were assessed by flow-cytometric analysis using a phycoerythrin-conjugated CD138 monoclonal antibody by standard procedures.\n7-aminoactinomycin was used to evaluate cell viability. The staining was performed according to manufacturer's instructions.\nCD138+malignant plasma cells derived from bone marrow aspirates of 11 myeloma patients were cultured in presence of human stromal HS-5 cells."}},
  "note": "l = locked nucleic acid (LNA); d = 2'-deoxy (DNA)",
  "data": [
    {"substance": "gapmer_06: LNA/DNA gapmer, SEQ ID 4 (14 mer): +T*+A*+C*T*T*G*C*T*T*G*G*+C*+T*+T; + LNA, * phosphorothioate (antisense TACTTGCTTGGCTT; sugars from the 5' end l3 d8 l3, all phosphorothioate, methylation of C not given here)", "values": [
      {"measurement": "downregulation of primary and mature miRNA sequences (q-RT-PCR)", "setting": "[1]; NCI-H929 and RPMI-8226 cells, relative to RNase-free water", "result": "more effective gapmer to downregulate both primary and mature miRNA sequences"},
      {"measurement": "downregulation of pri-miRs and miR-17-92 cluster members (q-RT-PCR)", "setting": "[1]; NCI-H929 cells, vs RNase-free water", "result": "induce downregulation of the two primary transcript and mature single miRNA members"},
      {"measurement": "biological effect on cell growth (CCK-8) compared with single miRNA inhibitors for miR-17/18a/19a/19b/20a/92a", "setting": "[2]", "result": "strongest biological effects"},
      {"measurement": "cell growth inhibition (CCK-8 assay)", "setting": "[2]; up to 96 hours, compared among the eight gapmers", "result": "strongest cell growth inhibition"},
      {"measurement": "anti-proliferative activity (CCK-8 assay)", "setting": "[3]", "result": "exerted anti-proliferative activity up to 96 hours after transfection in all myeloma cell lines tested"},
      {"measurement": "downregulation of primary transcript and mature single miRNAs (q-RT-PCR)", "setting": "[4]", "result": "downregulation of primary transcript as well as mature single miRNAs, in a dose dependent manner"},
      {"measurement": "dead myeloma cells (7-AAD staining)", "setting": "[5]", "result": "significant increase of dead myeloma cells"}
    ]}
  ]
}
